Source: US11022604B2, “Dock derived compound against laminin receptor (37 LR) and uses thereof” (Purdue Research Foundation, priority 2017, dated 2021)

How the values were obtained:
Type in all cases: cell-based
[1] = tested on: endothelial vessel formation in vitro (tube formation); experiment: Angiogenesis tube formation assay (derivatives); conditions: 30 uM, 7 hour incubation
Description: FIGS. 28A-28F Representative images of tube formation. 7 hour incubation period with respective compounds: FIG. 28A, DMSO; FIG. 28B DBGII-3, 30 uM; FIG. 28C, EGCG, 30 uM; FIG. 28 D, DBGII-5, 30 uM, FIG. 28E, C3, 30 uM; FIG. 28 F, DBGII-9, 30 uM.
An angiogenesis tube formation assay was used to characterize the impact of compounds against endothelial vessel formation in vitro (i.e., tube formation).

[2] = tested on: PC3 prostate cancer cell line; experiment: Cell Titer Glo cell viability assay
From the text: In this series of cell viability experiments, we used the highly sensitive Cell Titer Glo reagents from Promega in PC3 prostate cancer cell line. We compared the parental compound C3 effect on reducing cell viability with the best derivative compound, DBG-02-09.

[3] = tested on: PC3 prostate cancer cell lines; experiment: CCK8 cell viability screen of derivatives; conditions: PC3, CCK8, day three
Description: FIGS. 22A-22B. Screen of all the derivatives made in Example 17 in CCK8 cell viability assay with PC3 prostate cancer cell lines at day 3 (FIG. 22A) and day 5 (FIG. 22B).
FIG. 23. All derivatives made in Example 17 are tested for cell inhibition percentage at day 3.
CCK8 cell viability assay with PC3 prostate cancer cell lines is conducted and cell viability on day 3, day 5 are examined, see FIGS. 22A-22B. Additionally, the cell inhibition percentage for compounds DBG1-191, 1-200, 02-09, 2-14, among others were further characterized in CCK8 assay against PC3.

PC-3 cells = experiment: PC-3 cell viability response to recombinant PEDF (CCK-8); conditions: 48 hours
Description: FIG. 13. PC-3 Cell Viability Response To Recombinant PEDF PC-3 cells were treated with 0.1 to 0.6 μM rPEDF for 48 hours and cell viability was measured using the CCK-8 assay (n=3, mean±SEM). A one-way ANOVA was used for statistical analysis (n.s. p=0.11) however the linear trend was significant (post test for linear trend, p<0.05).
Recombinant PEDF (BioProductsMD) was resuspended in PEDF Buffer (0.2 M NaCl, 20 mM sodium phosphate, and 1 mM DTT; ph 6.4). 1,500 cells per well were seeded in a clear 96-well plate in RPMI-1640 with 1% anti-anti and 10% FBS and allowed to grow overnight. A 0-hour recording was taken using CCK-8 and compared to a 48-hour reading after incubating PC-3 cells with recombinant PEDF (0.1 μM to […]) in RPMI-1640 with 1% anti-anti and 1% FBS. […] The adenovirus was administered intravenously (2×10^8 pfu/i.v.) 3 days following subcutaneous TC2-Ras cell implantation (10^4 or 10^5, without mAR (−mAR control) or with mAR (+mAR) in C57/BL6 male mice. Mice were injected intraperitoneally with 150 mg/kg Luciferin (10-20 min incubation) followed by a 5 min signal acquisition using an IVIS 100 imager (Caliper/PerkinElmer, Downers Grove, Ill.) and analyzed with LivingImage 3.1 software (Caliper/PerkinElmer), with signals reported as photons per second per […] per steridian (p/sec/cm^2/sr). Statistics. Statistical analysis was performed using GraphPad Prism 6. […]

Molecule	tube formation [1]	IC50 ([2]; Homo sapiens, PC-3, PC3 cells) [µM]	reduction of IC50 relative to parental compound C3 ([2]; PC3 cells) [fold]	cell inhibition percentage (rank among derivatives) [3]	dose/response relationship for survival of PC-3 cells (PC-3 cells)
O=C(c1ccncc1Oc1ccccc1)N1CCN(C2c3ccccc3-c3ccccc32)CC1 [DBGII-03]	Thinning of tubes formed				
O=C(c1ccccc1)N1CCN(C2c3ccccc3-c3ccccc32)CC1 [DBGII-05]	Thinning of tubes formed				
CN(C)CCOc1ccccc1C(=O)N1CCN(C2c3ccccc3-c3ccccc32)CC1 [DBGII-09]	Thinning of tubes formed	7.6 ± 0.52	2.2	highest inhibition	
recombinant PEDF: Recombinant pigment epithelium-derived factor (BioProductsMD), secreted glycoprotein (protein, UniProt P36955 20-418, looked up) Pigment epithelium-derived …: QNPASPPEEGSPDPDSTGALVEEEDPFFKVPVNKLAAAVSNFGYDLYRVRSSTSPTTNVLLSPLSVATALSALSLGAEQRTESIIHRALYYDLISSPDIHGTYKELLDTVTAPQKNLKSASRIVFEKKLRIKSSFVAPLEKSYGTRPRVLTGNPRLDLQEINNWVQAQMKGKLARSTKEIPDEISILLLGVAHFKGQWVTKFDSRKTSLEDFYLDEERTVRVPMMSDPKAVLRYGLDSDLSCKIAQLPLTGSMSIIFFLPLKVTQNLTLIEESLTSEFIHDIDRELKTVQAVLTVPKLKLSYEGEVTKSLQEMKLQSLFDSPDFSKITGKPIKLTQVEHRAGFEWNEDGAGTTPSPGLQPAHLTFPLDYHLNQPFIFVLRDTDTGALLFIGKILDPRGP					unable to demonstrate a significant dose/response relationship
